Here are results for eight molecules from publication PMC12108418, “Broad-Spectrum Gramicidin S Derivatives with Potent Activity Against Multidrug-Resistant Gram-Negative ESKAPE Pathogens” (Antibiotics, 2025).

Each structure is given as a SMILES string. Converted amounts (≈) assume the structure as drawn. Where two headings read alike, the source gives them in different places. Square brackets hold non-standard residues; d marks the D form. Peptide text beside a SMILES is read from it. Tle = CC(C)(C)[C@H](N)C(=O)O; Orn = NCCC[C@H](N)C(=O)O; Abu = CC[C@H](N)C(=O)O

Data set [1] relates to Acinetobacter baumannii (ATCC 19606). Type of data set: cell-based. As to the method: (§1) The antibacterial efficacy of peptides was assessed using the broth microdilution method in accordance with Clinical and Laboratory Standards Institute (CLSI) guidelines (M07-A10, 2015 [33]). The minimum inhibitory concentrations (MICs) were determined against Escherichia coli (ATCC 25922), Klebsiella pneumoniae (ATCC 33495), Pseudomonas aeruginosa (ATCC 27853), Acinetobacter baumannii (ATCC 19606), and Staphylococcus aureus (ATCC 29213 and ATCC USA300). Bacterial suspensions were standardised to 5 × 10^4 colony-forming units (CFUs)/well in cation-adjusted Mueller–Hinton broth (CAMHB). Peptides were dissolved in 25% DMSO and serially diluted two-fold across 96-well plates, reaching final concentrations ranging from 256 to 0.125 µg/mL. The wells were inoculated, ensuring a final volume of 100 µL per well, with a DMSO concentration of 1% (v/v) to minimise solvent interference. […] Vancomycin was used as the positive control for S. aureus. Polymyxin B served as the positive control for Gram-negative bacteria. CAMHB with 1% (v/v) DMSO (without peptides) was used as the negative control. All experiments were performed in triplicate (n = 3). Bacterial isolates were stored in tryptone soy broth with 30% glycerol at −80 °C for long-term preservation.

For data set [2], the system named is Escherichia coli (ATCC 25922). Type of data set: cell-based. How it is done: as §1
Data set [3] deals with Klebsiella pneumoniae (ATCC 33495). Type of data set: cell-based. As to the method:
as §1

Data set [4] deals with Pseudomonas aeruginosa (ATCC 27853). Type of data set: cell-based. How it is done:
as §1

Data set [5] can be described thus: Analytical RP-HPLC retention time as measure of hydrophobicity. Type of data set: physicochemical. As to conditions: measure of global hydrophobicity, Phenomenex Kinetex 2.6 µm C18 (150 × 4.6 mm), 0.7 mL/min, ACN/TFA (100:0.0008) and water/TFA (100:0.001). As to the method:
Peptide purification was carried out via preparative RP-HPLC on an Agilent 1260 Infinity II system (Santa Clara, CA, USA) equipped with a 21.2 × 150 mm Agilent ZORBAX Eclipse Plus C18 column, operating at a flow rate of 25 mL/min. The mobile phase consisted of acetonitrile containing 0.0008% trifluoroacetic acid (v/v) as the organic phase and water with 0.001% TFA as the aqueous phase. […] Analytical HPLC analysis was performed on a Hewlett-Packard Series 1100 instrument using a Phenomenex (Torrance, CA, USA) Kinetex C18 column (150 mm × 4.6 mm, 2.6 µm particle size), under identical solvent conditions, to confirm purity.
HRMS of peptide 1. […] HRMS of peptide 2. […] HRMS of peptide 3. […] HRMS of peptide 4. […] HRMS of peptide 5. […] HRMS of peptide 6. […] HRMS of peptide 7. […] HRMS of peptide 8. […] HRMS of peptide 9. […] HRMS of peptide 10. […] HRMS of peptide 11. […] HRMS of peptide 12. […] HRMS of peptide 13. […] HRMS of peptide 14. […] HRMS of peptide 15. […] HRMS of peptide 16. […] HRMS of peptide 17. […] HRMS of peptide 18. […] HRMS of peptide 19.

A further data set deals with human red blood cells. The experiment in a line: Haemolysis assay. Type of data set: cell-based. As to conditions: 1% human RBC suspension in HEPES-buffered saline pH 7.4, pooled from three donors, 0.125 to 256 μg/mL, 1 h, 37 °C, absorbance 540 and 410 nm, triplicate (n = 3). How it is done:
To evaluate haemolytic activity, fresh human blood was collected from three unrelated healthy volunteers to ensure donor variability. Red blood cells (RBCs) were separated by centrifugation at 3000 rpm for 5 min at 4 °C, followed by washing in HEPES-buffered saline (HBS; 150 mM NaCl, 5 mM HEPES-NaOH, pH 7.4). The samples were pooled, mixed, and all experiments were performed in triplicate to enhance reproducibility. Blood samples were used within 48 h of collection to preserve erythrocyte integrity. A 1% RBC suspension in HBS (200 μL) was distributed into 96-well plates, and peptide solutions (100 μL) were added to reach final concentrations ranging from 0.125 to 256 μg/mL. After a 1 h incubation at 37 °C, the plates were centrifuged (3000 rpm, 5 min, 4 °C), and 80 μL of each supernatant was transferred to a fresh microplate. Absorbance readings were taken at 540 nm and 410 nm to assess protein content and haemoglobin release, respectively. HBS served as a negative control and 1% Triton X-100 as a positive control (n = 3).

Where [6] appears, read: broth microdilution in CAMHB, 5 × 10^4 CFU/well, 1% DMSO, 37 °C, 16–20 h, 256 to 0.125 µg/mL, triplicate (n = 3).

With `CC(C)(C)[C@@H]1NC(=O)[C@H](CCCN)NC(=O)[C@H](C(C)(C)C)NC(=O)[C@@H]2CCCN2C(=O)[C@@H](Cc2ccccc2)NC(=O)[C@H](C(C)(C)C)NC(=O)[C@H](CCCN)NC(=O)[C@H](C(C)(C)C)NC(=O)[C@@H]2CCCN2C(=O)[C@@H](Cc2ccccc2)NC1=O` [Peptide 1] (cyclo([Orn][Tle][dF]P[Tle][Orn][Tle][dF]P[Tle])), in data set [1] (ATCC 19606), the “MIC A. baumannii ATCC 19606” value was determined as 4 µg/mL (≈ 3.42 µM). In data set [2] (ATCC 25922), the “MIC E. coli ATCC 25922” value is recorded as 32 µg/mL (≈ 27.4 µM). In addition, the “MIC K. pneumonia ATCC 33495” value in data set [3] (ATCC 33495) is 128 µg/mL (≈ 109 µM). Besides, the “MIC P. aeruginosa ATCC 27853” value in data set [4] (ATCC 27853) is 64 µg/mL (≈ 54.7 µM). Further, the “RP-HPLC retention time tR” value in data set [5] worked out at 19.90 min.
On to `CC(C)(C)[C@@H]1NC(=O)[C@H](CCCN)NC(=O)[C@H](C(C)(C)C)NC(=O)[C@@H]2CCCN2C(=O)[C@@H](Cc2ccccc2)NC(=O)[C@H](C(C)(C)C)NC(=O)[C@H](CCCN)NC(=O)[C@H](C(C)(C)C)NC(=O)[C@@H]2CCCN2C(=O)[C@@H](CCCNC(=N)N)NC1=O` [Peptide 7] (cyclo([Orn][Tle][dF]P[Tle][Orn][Tle][dR]P[Tle])), for which the “MIC A. baumannii ATCC 19606” value in data set [1] (ATCC 19606) stood at 4 µg/mL (≈ 3.39 µM). Moreover, the “MIC E. coli ATCC 25922” value in data set [2] (ATCC 25922) worked out at 16 µg/mL (≈ 13.6 µM). Further, in data set [3] (ATCC 33495), the “MIC K. pneumonia ATCC 33495” value was determined as 32 µg/mL (≈ 27.2 µM). In addition, the “MIC P. aeruginosa ATCC 27853” value in data set [4] (ATCC 27853) worked out at 32 µg/mL (≈ 27.2 µM). The “RP-HPLC retention time tR” value in data set [5] is reported as 16.92 min.
For the molecule `CC(C)C[C@@H]1NC(=O)[C@H](CCCN)NC(=O)[C@H](C(C)(C)C)NC(=O)[C@@H]2CCCN2C(=O)[C@@H](Cc2ccccc2)NC(=O)[C@H](CC(C)C)NC(=O)[C@H](CCCN)NC(=O)[C@H](C(C)(C)C)NC(=O)[C@@H]2CCCN2C(=O)[C@@H](Cc2ccccc2)NC1=O` [Peptide 13] (cyclo(L[dF]P[Tle][Orn]L[dF]P[Tle][Orn])), the “MIC A. baumannii ATCC 19606” value in data set [1] (setting [6]) stood at 32 µg/mL (≈ 27.4 µM). In data set [2] (setting [6]), the “MIC E. coli ATCC 25922” value is 32 µg/mL (≈ 27.4 µM). Besides, in data set [3] (setting [6]), the “MIC K. pneumonia ATCC 33495” value came to 256 µg/mL (≈ 219 µM). Moreover, the “MIC P. aeruginosa ATCC 27853” value in data set [4] (setting [6]) stood at 128 µg/mL (≈ 109 µM). Also, the “HC50 (50% haemolytic concentration)” value in the data set on human red blood cells is listed as 6.26 ± 0.35 µg/mL.
As for `CC(C)C[C@@H]1NC(=O)[C@H](CCCN)NC(=O)[C@H](C(C)C)NC(=O)[C@@H]2CCCN2C(=O)[C@@H](Cc2ccccc2)NC(=O)[C@H](CC(C)C)NC(=O)[C@H](CCCNC(=N)N)NC(=O)[C@H](C(C)C)NC(=O)[C@@H]2CCCN2C(=O)[C@@H](CCCNC(=N)N)NC1=O` [Peptide 15] (cyclo(L[dF]PV[Orn]L[dR]PVR)), in data set [1] (ATCC 19606), the “MIC A. baumannii ATCC 19606” value amounted to 8 µg/mL (≈ 6.71 µM). In addition, the “MIC E. coli ATCC 25922” value in data set [2] (ATCC 25922) came to 16 µg/mL (≈ 13.4 µM). For the same molecule, the “MIC K. pneumonia ATCC 33495” value in data set [3] (ATCC 33495) turned out to be 16 µg/mL (≈ 13.4 µM). Further, the “MIC P. aeruginosa ATCC 27853” value in data set [4] (setting [6]) came out at 32 µg/mL (≈ 26.8 µM). Also, the “RP-HPLC retention time tR” value in data set [5] was determined as 16.47 min.
Turning to `CC[C@@H]1NC(=O)[C@@H]2CCCN2C(=O)[C@@H](Cc2ccccc2)NC(=O)[C@H](CC(C)C)NC(=O)[C@H](CCCNC(=N)N)NC(=O)[C@H](C(C)C)NC(=O)[C@@H]2CCCN2C(=O)[C@@H](CCCNC(=N)N)NC(=O)[C@H](CC(C)C)NC(=O)[C@H](CCCN)NC1=O` [Peptide 16] (cyclo([Abu][Orn]L[dR]PVRL[dF]P)), the “MIC A. baumannii ATCC 19606” value in data set [1] (ATCC 19606) was found to be 16 µg/mL (≈ 13.6 µM). Further, the “MIC E. coli ATCC 25922” value in data set [2] (ATCC 25922) is listed as 32 µg/mL (≈ 27.2 µM). The “MIC K. pneumonia ATCC 33495” value in data set [3] (ATCC 33495) is 32 µg/mL (≈ 27.2 µM). The “MIC P. aeruginosa ATCC 27853” value in data set [4] (setting [6]) was 64 µg/mL (≈ 54.3 µM). Moreover, the “RP-HPLC retention time tR” value in data set [5] is 16.24 min.
For the molecule `CC[C@@H]1NC(=O)[C@@H]2CCCN2C(=O)[C@@H](CCCNC(=N)N)NC(=O)[C@H](CC(C)C)NC(=O)[C@H](CCCN)NC(=O)[C@H](C(C)C)NC(=O)[C@@H]2CCCN2C(=O)[C@@H](Cc2ccccc2)NC(=O)[C@H](CC(C)C)NC(=O)[C@H](CCCNC(=N)N)NC1=O` [Peptide 17] (cyclo([Abu]RL[dF]PV[Orn]L[dR]P)), the “MIC A. baumannii ATCC 19606” value in data set [1] (ATCC 19606) is recorded as 16 µg/mL (≈ 13.6 µM). For the same molecule, in data set [2] (ATCC 25922), the “MIC E. coli ATCC 25922” value stood at 32 µg/mL (≈ 27.2 µM). Further, the “MIC K. pneumonia ATCC 33495” value in data set [3] (ATCC 33495) is recorded as 32 µg/mL (≈ 27.2 µM). In addition, the “MIC P. aeruginosa ATCC 27853” value in data set [4] (setting [6]) is 64 µg/mL (≈ 54.3 µM). For the same molecule, the “RP-HPLC retention time tR” value in data set [5] is 16.32 min.
Turning to `CC[C@@H]1NC(=O)[C@@H]2CCCN2C(=O)[C@@H](CCCNC(=N)N)NC(=O)[C@H](CC(C)C)NC(=O)[C@H](CCCN)NC(=O)[C@H](CC)NC(=O)[C@@H]2CCCN2C(=O)[C@@H](Cc2ccccc2)NC(=O)[C@H](CC(C)C)NC(=O)[C@H](CCCNC(=N)N)NC1=O` [Peptide 18] (cyclo([Abu][Orn]L[dR]P[Abu]RL[dF]P)), the “MIC A. baumannii ATCC 19606” value in data set [1] (ATCC 19606) is 32 µg/mL (≈ 27.5 µM). The “MIC E. coli ATCC 25922” value in data set [2] (ATCC 25922) is on record as 64 µg/mL (≈ 55 µM). In addition, the “MIC K. pneumonia ATCC 33495” value in data set [3] (ATCC 33495) was found to be 64 µg/mL (≈ 55 µM). For the same molecule, the “MIC P. aeruginosa ATCC 27853” value in data set [4] (ATCC 27853) was found to be 128 µg/mL (≈ 110 µM). For the same molecule, in data set [5], the “RP-HPLC retention time tR” value was determined as 16.03 min.
`CC(C)C[C@@H]1NC(=O)[C@H](CCCN)NC(=O)[C@H](C(C)(C)C)NC(=O)[C@@H]2CCCN2C(=O)[C@@H](Cc2ccccc2)NC(=O)[C@H](CC(C)C)NC(=O)[C@H](CCCN)NC(=O)[C@H](C(C)(C)C)NC(=O)[C@@H]2CCCN2C(=O)[C@@H](CCCNC(=N)N)NC1=O` [Peptide 19] (cyclo(L[dF]P[Tle][Orn]L[dR]P[Tle][Orn])): the “MIC A. baumannii ATCC 19606” value in data set [1] (ATCC 19606) is on record as 4 µg/mL (≈ 3.39 µM). Further, the “MIC E. coli ATCC 25922” value in data set [2] (ATCC 25922) worked out at 16 µg/mL (≈ 13.6 µM). Further, the “MIC K. pneumonia ATCC 33495” value in data set [3] (ATCC 33495) was determined as 32 µg/mL (≈ 27.2 µM). Besides, the “MIC P. aeruginosa ATCC 27853” value in data set [4] (ATCC 27853) amounted to 16 µg/mL (≈ 13.6 µM). Moreover, the “RP-HPLC retention time tR” value in data set [5] came out at 17.15 min.
